The values below come from patent US7166635B2, “3-imino-2-indolones for the treatment of depression and/or anxiety” (H. Lundbeck A/S, priority 2002, dated 2007).

This experiment has as its target T1, human GalR3 receptor (Homo sapiens, UniProt O60755).
T1 construct: expressed in transfected cells; membranes
T1 sequence (O60755 1-368): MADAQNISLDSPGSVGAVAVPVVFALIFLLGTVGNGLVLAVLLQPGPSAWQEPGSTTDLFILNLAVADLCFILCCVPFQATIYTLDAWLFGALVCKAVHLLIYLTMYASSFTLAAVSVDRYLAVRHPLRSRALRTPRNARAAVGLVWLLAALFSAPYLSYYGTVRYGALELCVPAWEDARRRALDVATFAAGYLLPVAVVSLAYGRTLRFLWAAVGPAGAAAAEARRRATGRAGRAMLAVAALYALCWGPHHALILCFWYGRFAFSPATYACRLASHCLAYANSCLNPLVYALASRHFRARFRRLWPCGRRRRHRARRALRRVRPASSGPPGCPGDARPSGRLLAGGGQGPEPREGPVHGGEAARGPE
Kind of experiment: Radioligand binding at cloned human GalR3 receptor. As to conditions: Binding Data; membranes of LM(tk-) cells stably transfected with human GalR3. On the procedure: The present invention provides for a method of determining the binding affinity of a GalR3 antagonist, wherein the GalR3 antagonist is dissolved in a “suitable solvent”. A “suitable solvent” means one which permits the measurement of binding affinity of the GalR3 antagonist to the human GalR3 receptor at concentrations less than 1 μM, preferably less than 100 nM. Examples of solvents include, but are not limited to, DMSO, ethanol, N,N-dimethylacetamide, or water. For indolones, the preferred solvent is 3% DMSO (final concentration in the assay). For any other type of compounds, the preferred solvent is the solvent which permits the measurement of binding affinity of a GalR3 antagonist at the lowest concentration.
COS-7 cells were grown on 150 mm plates in D-MEM with supplements (Dulbecco's Modified Eagle Medium with 10% bovine calf serum, 4 mM glutamine, 100 units/ml penicillin, 100 μg/ml streptomycin) at 37° C. with 5% CO2. Stock plates of COS-7 cells were trypsinized and split 1:6 every 3–4 days. Human embryonic kidney 293 cells were grown on 150 mm plates in D-MEM with supplements (minimal essential medium) with Hanks' salts and supplements (Dulbecco's Modified Eagle Medium with 10% bovine calf serum, 4 mM glutamine, 100 units/ml penicillin, 100 μg/ml streptomycin) at 37° C. with 5% CO2. Stock plates of 293 cells were trypsinized and split 1:6 every 3–4 days. Mouse fibroblast LM(tk-) cells were grown on 150 mm plates in D-MEM with supplements (Dulbecco's Modified Eagle Medium with 10% bovine calf serum, 4 mM glutamine, 100 units/mL penicillin, 100 μg/mL streptomycin) at 37° C. with 5% CO2. Stock plates of LM(tk-) cells were trypsinized and split 1:10 every 3–4 days. Chinese Hamster Ovary (CHO) cells were grown on 150 mm plates in HAM's F12 medium with (HAM's F-12 with 10% bovine calf serum, 4 mM glutamine, 100 units/mL penicillin, 100 μg/mL streptomycin) at 37° C. with 5% CO2. Stock plates of CHO cells were trypsinized and split 1:8 every 3–4 days. LM(tk-) cells were stably transfected with the human GalR3 receptor.
cDNAs for the human and rat GalR3 receptors were transfected with a G-418 resistant gene into the mouse fibroblast LM(tk-) cell line by a calcium phosphate transfection method (Cullen, 1987).
Membranes were harvested from stably transfected LM(tk-) cells. Adherent cells were washed twice in ice-cold phosphate buffered saline (138 mM NaCl, 8.1 mM Na2HPO4, 2.5 mM KCl, 1.2 mM KH2PO4, 0.9 mM CaCl2, 0.5 mM MgCl2, pH 7.4) and lysed by sonication in ice-cold sonication buffer (20 mM Tris-HCl, 5 mM EDTA, pH 7.7). Large particles and debris were cleared by low speed centrifugation (200×g, 5 min, 4° C.). Membranes were collected from the supernatant fraction by centrifugation (32,000×g, 18 min, 4° C.), washed with ice-cold hypotonic buffer, and collected again by centrifugation (32,000×g, 18 min, 4° C.). The final membrane pellet was resuspended by sonication into a small volume of ice-cold binding buffer (˜1 ml for every 5 plates: 10 mM NaCl, 20 mM HEPES, 0.22 mM KH2PO4, 1.26 mM CaCl2, 0.81 mM MgSO4, pH 7.4). Protein concentration was measured by the Bradford method (Bradford, 1976) using Bio-Rad Reagent, with bovine serum albumin as a standard. Membranes were held on ice for up to one hour and used fresh, or flash frozen and stored in liquid nitrogen. Membranes were prepared similarly from CHO cells.
The methods to obtain the cDNA of the receptors, express said receptors in heterologous systems, and carry out assays to determine binding affinity are described as follows.
Binding assays were performed according to the following published method: human GALR3 (PCT International Publication No. WO 98/15570).

Take `COc1ccc(N2C(=O)C(=Nc3ccc(Cl)c(Cl)c3)c3cc(Cl)ccc32)cn1` (racemic) [Example 3, 5-CHLORO-3-[(3,4-DICHLOROPHENYL)IMINO]-1-(6-METHOXY-3-PYRIDINYL)-1,3-DIHYDRO-2H-INDOL-2-ONE]: the Ki (usually a measure of affinity in units of concentration, obtained from inhibition or displacement) worked out at 20 nM. On to `O=C1/C(=N\c2ccc3c(c2)OC(F)(F)O3)c2ccccc2N1c1ccc(O)cc1` [Example 1, 3-[(2,2-DIFLUORO-1,3-BENZODIOXOL-5-YL)IMINO]-1-(4-HYDROXYPHENYL)-1,3-DIHYDRO-2H-INDOL-2-ONE], for which the inhibition constant Ki came to 72 nM. `COc1ccc(N2C(=O)/C(=N\c3ccc(Cl)c(Cl)c3)c3ccccc32)cn1` [Example 2, 3-[(3,4-DICHLOROPHENYL)IMINO]-1-(6-METHOXY-3-PYRIDINYL)-1,3-DIHYDRO-2H-INDOL-2-ONE] displayed a Ki of 15 nM. The same measure for `O=C1/C(=N\c2cccc(C(F)(F)F)c2)c2ccc(O)cc2N1c1ccccc1` [Example 4, 6-HYDROXY-1-PHENYL-3-{[3-(TRIFLUOROMETHYL)PHENYL]IMINO}-1,3-DIHYDRO-2H-INDOL-2-ONE]: 55 nM; for `O=C1/C(=N\c2ccc(Cl)c(Cl)c2)c2ccccc2N1c1ccc(O)cc1` [Example 5, 3-[(3,4-DICHLOROPHENYL)IMINO]-1-(4-HYDROXYPHENYL)-1,3-DIHYDRO-2H-INDOL-2-ONE]: 27 nM.

`O=C1/C(=N\c2cc(F)cc(F)c2)c2ccccc2N1c1ccc(O)cc1` [Example 6, 3-[(3,5-DIFLUOROPHENYL)IMINO]-1-(4-HYDROXYPHENYL)-1,3-DIHYDRO-2H-INDOL-2-ONE]: the Ki is 41 nM. The same measure for `O=C1/C(=N\c2cccc(C(F)(F)F)c2)c2ccccc2N1c1cccc(O)c1` [Example 7, 1-(3-HYDROXYPHENYL)-3-{[3-(TRIFLUOROMETHYL)PHENYL]IMINO}-1,3-DIHYDRO-2H-INDOL-2-ONE]: 28 nM; for `O=C1/C(=N\c2cccc(C(F)(F)F)c2)c2ccccc2N1c1ccccc1O` [Example 8, 1-(2-HYDROXYPHENYL)-3-{[3-(TRIFLUOROMETHYL)PHENYL]IMINO}-1,3-DIHYDRO-2H-INDOL-2-ONE]: 68 nM; for `O=C1/C(=N\c2cccc(C(F)(F)F)c2)c2cc(O)ccc2N1c1ccccc1` [Example 9, 5-HYDROXY-1-PHENYL-3-{[3-(TRIFLUOROMETHYL)PHENYL]IMINO}-1,3-DIHYDRO-2H-INDOL-2-ONE]: 58 nM.

As to `COc1ccc(N2C(=O)/C(=N\c3cccc(C(F)(F)F)c3)c3ccccc32)cn1` [Example 10, 3-[(3-TRIFLUOROMETHYLPHENYL)IMINO]-1-(6-METHOXY-3-PYRIDINYL)-1,3-DIHYDRO-2H-INDOL-2-ONE], affinity was put at a Ki of 31 nM.
